# Columns and labels:
# [1] = system: duck liver-derived cells (primary cultured cells); experiment: Culturability when L-cystine was replaced with L-cysteine, duck liver-derived cells (Example 9); assay type: cell-based; conditions: end of third subculture, 0.072 g/L
# Experimental: (§1) Cells used: MDBK cells (established cell line), RL34 cells (established cell line), duck liver-derived cells (primary cultured cells)
# (§2) Amount of L-cysteine hydrochloride monohydrate added: Since L-cystine is a dimer of L-cysteine, L-cysteine hydrochloride monohydrate was added in an amount twice the number of moles of L-cystine.
# (§3) MDBK cells and RL34 cells were each subcultured in a complete medium prepared by adding 1% PSA and 10% FBS to the above basal medium. Duck liver-derived cells were also subcultured in a complete medium prepared by adding 1% PSA and 10% serum to the above basal medium. In both cases, subculture was performed every 3 to 4 days, and subculture was performed up to the third time.
# [2] = system: MDBK cells (established cell line); experiment: Culturability when L-cystine was replaced with L-cysteine, MDBK (Example 9); assay type: cell-based, bovine; conditions: end of third subculture, 0.072 g/L
# Experimental: as §1, §2, §3
# [3] = system: RL34 cells (established cell line); experiment: Culturability when L-cystine was replaced with L-cysteine, RL34 (Example 9); assay type: cell-based, rat; conditions: RL34, end of third subculture, 0.072 g/L
# Experimental: as §1, §2, §3
# [4] = system: mouse-derived myoblast cell line C2C12; experiment: Cell culture test of amino acid conditions, C2C12 (Example 1); assay type: cell-based; conditions: C2C12, from condition 19 (1/8 amount) vs condition 20
# Experimental: Of the constituents to be contained in Dulbecco's Modified Eagle Medium (DMEM), those excluding amino acids was dissolved in ion-exchanged water to prepare A.A.-IMEM Seven types of yeast extract ([…], and J) shown below were each further added to the A.A.-IMEM Buffer, so that the final concentration in the medium was 1 g/L. Various amino acids required for the proliferation of cultured cells in DMEM were added to “A.A.-IMEM Buffer+yeast extract” according to conditions 1 to 16 in Table 3, and a cell culture test was conducted. […] The amount of each amino acid added was the same as that contained in the formulation of DMEM. In addition, the same amino acid composition as that of DMEM was used as P.C. (positive control), while the same amino acid composition as that of DMEM but with 1⁄8th the amount added was used as condition 19, and that with 1/32nd the amount added was used as condition 20. All reagents used in the experiment were of food additive grade. 10% heat-inactivated fetal bovine serum (FBS) and 1% penicillin-streptomycin-amphotericin (PSA) were further added to A.A.-IMEM Buffer+yeast extract and the amino acids of each condition listed in Table 3, so as to conduct a cell culture test. For the cell culture test, mouse-derived myoblast cell line C2C12 was used. […]
Compound,difference in culturability due to replacement of L-cystine [1],difference in culturability due to replacement of L-cystine [2],difference in culturability due to replacement of L-cystine [3],amount of amino acid required in the medium [4]
Cl.N[C@@H](CS)C(=O)O.O [L-cysteine hydrochloride monohydrate],almost no difference in culturability,almost no difference in culturability,almost no difference in culturability,
N[C@@H](CSSC[C@H](N)C(=O)O)C(=O)O [L-cystine],,,,at least 6.13 mg/L
NC(=O)CC[C@H](N)C(=O)O [L-glutamine],,,,≥ 74.5 mg/L

# — patent US20260209692A1, “BASAL MEDIUM COMPOSITION FOR ANIMAL CELL CULTURE” (TableMark Co., Ltd., priority 2023, published 2026)
